Tested on: K12877-001-R-J1-PDC complex spheroid viability
Experiment: Anticancer human tumor K12877-001-R-J1-PDC patient-derived lung adenocarcinoma cell line growth inhibition [RAS]
Details: for IC50: curve of first compound; for viability, T/C: stronger effect = lower value
Outline: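 Multi-cell-type spheroids: tumor cells plus HUVEC endothelial cells and mesenchymal stem cells. RAS-pathway inhibitors were combined with targeted agents, each dosed in half-log steps down from clinical Cmax, or from 10 microM when Cmax was unknown.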
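Note: spheroids exposed to agents for one week before readout.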
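Throughout, for viability, T/C: tumour cells co-cultured with HUVEC and mesenchymal stem cells in spheroids.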

SMILES: CC(C)n1nc(-c2ccc3oc(N)nc3c2)c2c(N)ncnc21 + CCn1c(-c2cccnc2C(C)OC)c2c3cc(ccc31)N1CCOC(CC(NC(=O)C(C(C)C)N(C)C(=O)C3(F)CCN(C(=O)C#CC(C)(C)N(C)C)CC3)C(=O)N3CCCC(N3)C(=O)OCC(C)(C)C2)C1
- IC50 (second compound 0.000949 µM): 9.24 nM
- IC50 (second compound 0.003 µM): 6.95 nM
- IC50 (second compound 0.00949 µM): 8.2 nM
- IC50 (second compound 0.03 µM): 6.3 nM
- IC50 (second compound 0.0949 µM): 3.56 nM
- IC50 (second compound 0.3 µM): 1.37 nM
- viability, T/C (second compound 0.000949 µM, first compound 0.000316 µM): 81.6%
- viability, T/C (second compound 0.000949 µM, first compound 0.001 µM): 81.3%
- viability, T/C (second compound 0.000949 µM, first compound 0.00316 µM): 78.2%
- viability, T/C (second compound 0.000949 µM, first compound 0.01 µM): 47.4%
- viability, T/C (second compound 0.000949 µM, first compound 0.0316 µM): 18.7%
- viability, T/C (second compound 0.000949 µM, first compound 0.1 µM): 11.9%
- viability, T/C (second compound 0.003 µM, first compound 0.000316 µM): 77.6%
- viability, T/C (second compound 0.003 µM, first compound 0.001 µM): 80.9%
- viability, T/C (second compound 0.003 µM, first compound 0.00316 µM): 66.2%
- viability, T/C (second compound 0.003 µM, first compound 0.01 µM): 41.8%
- viability, T/C (second compound 0.003 µM, first compound 0.0316 µM): 20.4%
- viability, T/C (second compound 0.003 µM, first compound 0.1 µM): 11%
- viability, T/C (second compound 0.00949 µM, first compound 0.000316 µM): 77.5%
- viability, T/C (second compound 0.00949 µM, first compound 0.001 µM): 76.9%
- viability, T/C (second compound 0.00949 µM, first compound 0.00316 µM): 63.4%
- viability, T/C (second compound 0.00949 µM, first compound 0.01 µM): 50%
- viability, T/C (second compound 0.00949 µM, first compound 0.0316 µM): 16.2%
- viability, T/C (second compound 0.00949 µM, first compound 0.1 µM): 8.87%
- viability, T/C (second compound 0.03 µM, first compound 0.000316 µM): 69.3%
- viability, T/C (second compound 0.03 µM, first compound 0.001 µM): 69.6%
- viability, T/C (second compound 0.03 µM, first compound 0.00316 µM): 59.1%
- viability, T/C (second compound 0.03 µM, first compound 0.01 µM): 44%
- viability, T/C (second compound 0.03 µM, first compound 0.0316 µM): 18.4%
- viability, T/C (second compound 0.03 µM, first compound 0.1 µM): 7.89%
- viability, T/C (second compound 0.0949 µM, first compound 0.000316 µM): 68.7%
- viability, T/C (second compound 0.0949 µM, first compound 0.001 µM): 61.4%
- viability, T/C (second compound 0.0949 µM, first compound 0.00316 µM): 50%
- viability, T/C (second compound 0.0949 µM, first compound 0.01 µM): 37.8%
- viability, T/C (second compound 0.0949 µM, first compound 0.0316 µM): 12.2%
- viability, T/C (second compound 0.0949 µM, first compound 0.1 µM): 7.05%
- viability, T/C (second compound 0.3 µM, first compound 0.000316 µM): 65%
- viability, T/C (second compound 0.3 µM, first compound 0.001 µM): 53.1%
- viability, T/C (second compound 0.3 µM, first compound 0.00316 µM): 39.8%
- viability, T/C (second compound 0.3 µM, first compound 0.01 µM): 28.8%
- viability, T/C (second compound 0.3 µM, first compound 0.0316 µM): 12.6%
- viability, T/C (second compound 0.3 µM, first compound 0.1 µM): 6.48%

SMILES: CC1(C)CCC(Nc2ncc(C(F)(F)F)c(-c3c[nH]c4c(P(C)(C)=O)c(C#N)ccc34)n2)CN1 (centres undefined) + CCn1c(-c2cc(N3CCN(C)CC3)cnc2C(C)OC)c2c3cc(ccc31)-c1csc(n1)CC(NC(=O)C1CC1C)C(=O)N1CCCC(N1)C(=O)OCC(C)(C)C2
- IC50 (second compound 0.000949 µM): 45 nM
- IC50 (second compound 0.003 µM): 45.9 nM
- IC50 (second compound 0.00949 µM): 27.4 nM
- IC50 (second compound 0.03 µM): 32.2 nM
- IC50 (second compound 0.0949 µM): 30.8 nM
- IC50 (second compound 0.3 µM): 37.6 nM
- viability, T/C (second compound 0.000949 µM, first compound 0.000949 µM): 84.8%
- viability, T/C (second compound 0.000949 µM, first compound 0.003 µM): 77.5%
- viability, T/C (second compound 0.000949 µM, first compound 0.00949 µM): 78.1%
- viability, T/C (second compound 0.000949 µM, first compound 0.03 µM): 57.4%
- viability, T/C (second compound 0.000949 µM, first compound 0.0949 µM): 35.8%
- viability, T/C (second compound 0.000949 µM, first compound 0.3 µM): 28%
- viability, T/C (second compound 0.003 µM, first compound 0.000949 µM): 73.1%
- viability, T/C (second compound 0.003 µM, first compound 0.003 µM): 66.7%
- viability, T/C (second compound 0.003 µM, first compound 0.00949 µM): 65.3%
- viability, T/C (second compound 0.003 µM, first compound 0.03 µM): 58%
- viability, T/C (second compound 0.003 µM, first compound 0.0949 µM): 37.9%
- viability, T/C (second compound 0.003 µM, first compound 0.3 µM): 29.1%
- viability, T/C (second compound 0.00949 µM, first compound 0.000949 µM): 68.2%
- viability, T/C (second compound 0.00949 µM, first compound 0.003 µM): 71.7%
- viability, T/C (second compound 0.00949 µM, first compound 0.00949 µM): 61.5%
- viability, T/C (second compound 0.00949 µM, first compound 0.03 µM): 50.7%
- viability, T/C (second compound 0.00949 µM, first compound 0.0949 µM): 31.8%
- viability, T/C (second compound 0.00949 µM, first compound 0.3 µM): 32.1%
- viability, T/C (second compound 0.03 µM, first compound 0.000949 µM): 76%
- viability, T/C (second compound 0.03 µM, first compound 0.003 µM): 70.6%
- viability, T/C (second compound 0.03 µM, first compound 0.00949 µM): 72.4%
- viability, T/C (second compound 0.03 µM, first compound 0.03 µM): 50.8%
- viability, T/C (second compound 0.03 µM, first compound 0.0949 µM): 37%
- viability, T/C (second compound 0.03 µM, first compound 0.3 µM): 36.2%
- viability, T/C (second compound 0.0949 µM, first compound 0.000949 µM): 111%
- viability, T/C (second compound 0.0949 µM, first compound 0.003 µM): 113%
- viability, T/C (second compound 0.0949 µM, first compound 0.00949 µM): 88.6%
- viability, T/C (second compound 0.0949 µM, first compound 0.03 µM): 50.5%
- viability, T/C (second compound 0.0949 µM, first compound 0.0949 µM): 39.5%
- viability, T/C (second compound 0.0949 µM, first compound 0.3 µM): 33.5%
- viability, T/C (second compound 0.3 µM, first compound 0.000949 µM): 97.8%
- viability, T/C (second compound 0.3 µM, first compound 0.003 µM): 98.7%
- viability, T/C (second compound 0.3 µM, first compound 0.00949 µM): 72.6%
- viability, T/C (second compound 0.3 µM, first compound 0.03 µM): 53.8%
- viability, T/C (second compound 0.3 µM, first compound 0.0949 µM): 42.2%
- viability, T/C (second compound 0.3 µM, first compound 0.3 µM): 37%
